According to US8835644B2, “Broad spectrum benzothiophene-nitrothiazolide and other antimicrobials” (University of Virginia Patent Foundation, priority 2009, dated 2014):
Converted amounts (≈) assume the structure as drawn. Read-outs that look alike come from different tables or passages of the source.

Experiments:
[1] = test system: H. pylori; assay: MIC testing by broth dilution, H. pylori; format: cell-based, Helicobacter pylori
Procedure: (§1) A standard broth dilution protocol was used in 96 well microplates containing a standard dilution of the microorganism to be tested in 100 microliters of the appropriate medium. Appropriate medium: E. coli, LB medium; Staphylococcus strains, Trypticase Soy; and for H. pylori and C. jejuni, Brain Heart Infusion. The compounds to be tested were set at 32 μg/ml in 200 microliters in well one and then serially diluted to provide a range from 32 to 0.06. The wells were scored visually at 24 h. The well where there was no growth was recorded as the MIC. Clostridium difficile was tested by agar diffusion and disk diffusion (Kirby Bower) methods under anaerobic conditions on Wilkins Chalgrin agar. In these assays, zone of inhibited growth was measured and compared by relative ratio to the zone recorded for NTZ.
(§2) Representative compounds of the invention were tested in a series of assays against a series of organisms as described above. […] The organisms tested include, C. difficile, H. pylori, C. jejuni, MRSA, S. epidermidis, and E. coli. S. epidermidis and E. coli were tested in the plank and biofilm assay. A disk diffusion assay was also used for C. difficile. Direct PFOR enzyme assays were also performed. All analogues and derivatives were not tested on every organism in every type of assay (the “-” in each table means that it was not tested).

[2] = test system: C. jejuni; assay: MIC testing by broth dilution, C. jejuni; format: cell-based, Campylobacter jejuni
Procedure: as §1, §2

[3] = test system: MRSA; assay: MIC testing by broth dilution, MRSA; format: cell-based, Staphylococcus aureus
Procedure: as §1, §2

[4] = test system: S. epidermidis; assay: MIC testing by broth dilution, S. epidermidis plank; format: cell-based, Staphylococcus epidermidis
Procedure: as §1, §2

[5] = test system: E. coli; assay: MIC testing by broth dilution, E. coli plank; format: cell-based, Escherichia coli
Procedure: as §1, §2

[6] = Thiophene analogues table, read-out: MIC H. pylori
[7] = Thiophene analogues table, read-out: MIC C. jejuni
[8] = Thiophene analogues table, read-out: MIC MRSA
[9] = planktonic, Thiophene analogues table, read-out: MIC S. epidermidis Plank
[10] = planktonic, Thiophene analogues table, read-out: MIC E. coli Plank
[11] = broth dilution, Brain Heart Infusion, 24 h, read-out: MIC (μM) H. pylori
[12] = broth dilution, Brain Heart Infusion, 24 h, read-out: MIC (μM) C. jejuni
[13] = broth dilution, Trypticase Soy, 24 h, read-out: MIC (μM) MRSA
[14] = broth dilution, Trypticase Soy, 24 h, read-out: MIC (μM) S. epidermidis Plank
[15] = broth dilution, LB medium, 24 h, read-out: MIC (μM) E. coli Plank
[16] = Furan analogues table, read-out: MIC H. pylori
[17] = Furan analogues table, read-out: MIC C. jejuni
[18] = Furan analogues table, read-out: MIC MRSA
[19] = planktonic, Furan analogues table, read-out: MIC S. epidermidis Plank
[20] = planktonic, Furan analogues table, read-out: MIC E. coli Plank

Compound	MIC [1, 11] [µM]	MIC [2, 12] [µM]	MIC [3, 13] [µM]	MIC [4, 14] [µM]	MIC [5, 15] [µM]	further results
O=C(Nc1ncc([N+](=O)[O-])s1)c1ccc(-c2cccs2)s1 [VPC16b2021]						MIC [1, 6]: 3.0 µM (≈ 1.01 µg/mL); MIC [2, 7]: 94.8 µM (≈ 32 µg/mL); MIC [3, 8]: 94.8 µM (≈ 32 µg/mL); MIC [4, 9]: 94.8 µM (≈ 32 µg/mL); MIC [5, 10]: 94.8 µM (≈ 32 µg/mL)
O=C(Nc1ncc([N+](=O)[O-])s1)C1CC1c1ccccc1 (centres unmarked) [VPC16b1032]	1.7 (≈ 0.492 µg/mL)	26.6 (≈ 7.7 µg/mL)	13.8 (≈ 3.99 µg/mL)	13.8 (≈ 3.99 µg/mL)	110.6 (≈ 32 µg/mL)	
Cc1cccc(-c2ccc(C(=O)Nc3ncc([N+](=O)[O-])s3)o2)c1 [VPC16b2014]						MIC [1, 16]: 2.3 µM (≈ 0.757 µg/mL); MIC [2, 17]: 97.2 µM (≈ 32 µg/mL); MIC [3, 18]: 97.2 µM (≈ 32 µg/mL); MIC [4, 19]: 97.2 µM (≈ 32 µg/mL); MIC [5, 20]: 97.2 µM (≈ 32 µg/mL)
O=C(Nc1ncc([N+](=O)[O-])s1)c1ccc(-c2ccccc2)o1 [VPC16c1020]						MIC [1, 16]: 2.4 µM (≈ 0.757 µg/mL); MIC [2, 17]: 101.5 µM (≈ 32 µg/mL); MIC [3, 18]: 101.5 µM (≈ 32 µg/mL); MIC [4, 19]: 101.5 µM (≈ 32 µg/mL); MIC [5, 20]: 101.5 µM (≈ 32 µg/mL)
O=C(Nc1ncc([N+](=O)[O-])s1)c1ccc(-c2ccsc2)s1 [VPC16b1154]						MIC [1, 6]: 3.0 µM (≈ 1.01 µg/mL); MIC [2, 7]: 94.8 µM (≈ 32 µg/mL); MIC [3, 8]: 94.8 µM (≈ 32 µg/mL); MIC [4, 9]: 94.8 µM (≈ 32 µg/mL); MIC [5, 10]: 94.8 µM (≈ 32 µg/mL)
O=C(Nc1ncc([N+](=O)[O-])s1)c1ccncc1F [VPC16a1053]	3.7 (≈ 0.992 µg/mL)	14.9 (≈ 4 µg/mL)	119.3 (≈ 32 µg/mL)	119.3 (≈ 32 µg/mL)	119.3 (≈ 32 µg/mL)	
O=C(Nc1ncc([N+](=O)[O-])s1)c1ccc(-c2cccs2)o1 [VPC16b1145, N-(5-Nitrothiazol-2-yl)-5-(thiophen-2-yl)furan-2-carboxamide]						MIC ([1]; Helicobacter pylori, Furan analogues table, read-out: MIC H. pylori): 1.9 µM (≈ 0.611 µg/mL); MIC ([2]; Campylobacter jejuni, Furan analogues table, read-out: MIC C. jejuni): 12.5 µM (≈ 4.02 µg/mL); MIC ([3]; Staphylococcus aureus, MRSA, Furan analogues table, read-out: MIC MRSA): 12.4 µM (≈ 3.98 µg/mL); MIC ([4]; Staphylococcus epidermidis, planktonic, Furan analogues table, read-out: MIC S. epidermidis Plank): 12.4 µM (≈ 3.98 µg/mL); MIC ([5]; Escherichia coli, planktonic, Furan analogues table, read-out: MIC E. coli Plank): 99.6 µM (≈ 32 µg/mL)
Cn1c(C(=O)Nc2ncc([N+](=O)[O-])s2)cc2ccccc21 [VPC16b1028]	1.2 (≈ 0.363 µg/mL)	39.7 (≈ 12 µg/mL)	105.9 (≈ 32 µg/mL)	105.9 (≈ 32 µg/mL)	105.9 (≈ 32 µg/mL)	
O=C(Nc1ncc([N+](=O)[O-])s1)c1ccc(-c2cccc(F)c2)o1 [VPC16b1115]						MIC [1, 16]: 1.5 µM (≈ 0.5 µg/mL); MIC [2, 17]: 24.0 µM (≈ 8 µg/mL); MIC [3, 18]: 24.0 µM (≈ 8 µg/mL); MIC [4, 19]: 12.0 µM (≈ 4 µg/mL); MIC [5, 20]: 96.0 µM (≈ 32 µg/mL)
O=C(Nc1ncc([N+](=O)[O-])s1)c1c(F)cccc1F [VPC16b1010]	0.7 (≈ 0.2 µg/mL)	14.0 (≈ 3.99 µg/mL)	28.0 (≈ 7.99 µg/mL)	28.0 (≈ 7.99 µg/mL)	112.2 (≈ 32 µg/mL)	
O=C(Nc1ncc([N+](=O)[O-])s1)c1ccc(F)c(F)c1 [VPC16b1019]	1.8 (≈ 0.513 µg/mL)	5.3 (≈ 1.51 µg/mL)	10.5 (≈ 2.99 µg/mL)	28.0 (≈ 7.99 µg/mL)	84.1 (≈ 24 µg/mL)	
O=C(Nc1ncc([N+](=O)[O-])s1)c1ccc(-c2ccsc2)o1 [VPC16b2022]						MIC [1, 16]: 6.2 µM (≈ 1.99 µg/mL); MIC [2, 17]: 99.6 µM (≈ 32 µg/mL); MIC [3, 18]: 99.6 µM (≈ 32 µg/mL); MIC [4, 19]: 99.6 µM (≈ 32 µg/mL); MIC [5, 20]: 99.6 µM (≈ 32 µg/mL)
Cn1cc(C(=O)Nc2ncc([N+](=O)[O-])s2)c2ccccc21 [VPC16a1014]	1.2 (≈ 0.363 µg/mL)	19.9 (≈ 6.02 µg/mL)	105.9 (≈ 32 µg/mL)	5.0 (≈ 1.51 µg/mL)	105.9 (≈ 32 µg/mL)	

Now from value to compound, other results behind:

MIC [1, 11] [µM]	MIC [2, 12] [µM]	MIC [3, 13] [µM]	MIC [4, 14] [µM]	MIC [5, 15] [µM]	Compound	further results
1.9 (≈ 0.772 µg/mL)	78.7 (≈ 32 µg/mL)	78.7 (≈ 32 µg/mL)	4.9 (≈ 1.99 µg/mL)	78.7 (≈ 32 µg/mL)	CCCCCCNC(=O)COc1ccccc1C(=O)Nc1ncc([N+](=O)[O-])s1 [VPC162064]	
0.6 (≈ 0.206 µg/mL)	93.2 (≈ 32 µg/mL)	93.2 (≈ 32 µg/mL)	2.9 (≈ 0.996 µg/mL)	93.2 (≈ 32 µg/mL)	O=C(C=Cc1ccc(C(F)(F)F)cc1)Nc1ncc([N+](=O)[O-])s1 [VPC161239]	
2.3 (≈ 1 µg/mL)	36.7 (≈ 16 µg/mL)	73.5 (≈ 32 µg/mL)	27.6 (≈ 12 µg/mL)	73.5 (≈ 32 µg/mL)	O=C(COc1ccccc1C(=O)Nc1ncc([N+](=O)[O-])s1)NCCN1CCOCC1 [VPC162065]	
